Measured values: ChEMBL document CHEMBL6087476, “Positive Charge-Concentrated Dimeric Lipopeptides with Enhanced Protease Resistance: A Potential Solution for Systemic Bacterial Infections” (J Med Chem, 2025)
In brackets after ≈: the same amount, converted by molar mass. Activity calls are given as the source filed them. No cut-off for these calls is given here.

Experiments:
[1] = test system: Acinetobacter baumannii; experiment: Antimicrobial activity against Acinetobacter baumannii AB1901 assessed as increase in absorbance incubated for 20 to 22 hrs; assay type: functional; conditions: time 20-22 hrs
[2] = test system: Acinetobacter baumannii; experiment: Antimicrobial activity against Acinetobacter baumannii AB1902 assessed as increase in absorbance incubated for 20 to 22 hrs; assay type: functional; conditions: time 20-22 hrs
[3] = test system: Pseudomonas aeruginosa; experiment: Antimicrobial activity against Pseudomonas aeruginosa 25349 assessed as increase in absorbance incubated for 20 to 22 hrs; assay type: functional; conditions: time 20-22 hrs
[4] = test system: Staphylococcus aureus; experiment: Antimicrobial activity against Staphylococcus aureus 11011 assessed as increase in absorbance incubated for 20 to 22 hrs; assay type: functional; conditions: time 20-22 hrs
[5] = test system: Mus musculus; experiment: Anti-inflammatory activity against Escherichia coli ATCC 25922-induced peritonitis ICR mouse model assessed as decrease in IL-1 beta level in serum spleen at 5 mg/kg, ip measured after 12 hrs; assay type: functional, organism-based
[6] = test system: Mus musculus; experiment: Anti-inflammatory activity against Escherichia coli ATCC 25922-induced peritonitis ICR mouse model assessed as decrease in IL-6 level in serum spleen at 5 mg/kg, ip measured after 12 hrs; assay type: functional, organism-based
[7] = test system: Mus musculus; experiment: Anti-inflammatory activity against Escherichia coli ATCC 25922-induced peritonitis ICR mouse model assessed as decrease in TNF-alpha level in serum spleen at 5 mg/kg, ip measured after 12 hrs; assay type: functional, organism-based

Row | SMILES | MIC [1] | MIC [2] | MIC [3] | MIC [4] | Activity [5] | Activity [6] | Activity [7]
1 | O=C(O)c1cn(C2CC2)c2cc(N3CCNCC3)c(F)cc2c1=O [CIPROFLOXACIN] | 0.25 µM (≈ 0.0828 µg/mL) | > 64 µM | 0.25 µM (≈ 0.0828 µg/mL) | > 64 µM | – | – | –
2 | CC(C)(O/N=C(\C(=O)N[C@@H]1C(=O)N2C(C(=O)[O-])=C(C[n+]3ccccc3)CS[C@H]12)c1csc(N)n1)C(=O)O [CEFTAZIDIME] | 0.5 µM (≈ 0.273 µg/mL) | > 64 µM | 0.5 µM (≈ 0.273 µg/mL) | > 64 µM | – | – | –
3 | CC1(C)S[C@@H]2[C@H](NC(=O)Cc3ccccc3)C(=O)N2[C@H]1C(=O)O [PENICILLIN G SODIUM] | 64 µM | > 64 µM | > 64 µM | > 64 µM | – | – | –
4 | CNC(C)[C@@H]1CC[C@@H](N)[C@@H](O[C@H]2[C@H](O)[C@@H](O[C@H]3OC[C@](C)(O)[C@H](NC)[C@H]3O)[C@H](N)C[C@@H]2N)O1.CN[C@@H]1[C@@H](O)[C@@H](O[C@@H]2[C@@H](O)[C@H](O[C@H]3O[C@H](C(C)N)CC[C@H]3N)[C@@H](N)C[C@H]2N)OC[C@]1(C)O.CN[C@@H]1[C@@H](O)[C@@H](O[C@@H]2[C@@H](O)[C@H](O[C@H]3O[C@H](CN)CC[C@H]3N)[C@@H](N)C[C@H]2N)OC[C@]1(C)O (some centres undefined) | 0.25 µM | > 64 µM | 0.25 µM | > 64 µM | Active | Active | Active
